Experimental data: patent publication US20240277890A1, “ANTIMICROBIAL ARTICLES COMPRISING POLYURETHANE” (Amicoat AS, priority 2021, published 2024)
≈ marks a conversion by molar mass, not a printed value.

Assays:
[1] = system: EMRSA16 Staphylococcus aureus (MRSA) - SSCmec type 2; conditions: EMRSA16 - SSCmec type 2
[2] = system: HT2001254 Staphylococcus aureus (MRSA) - PVL positive; conditions: HT2001254 S. aureus (MRSA) PVL positive
[3] = system: Staphylococcus epidermidis antibiotic susceptible clinical isolate
[4] = system: Streptococcus pyogenes - Macrolide (M-type) resistance clinical isolate
[5] = system: Enterococcus faecalis high-level gentamicin-resistant clinical isolate
[6] = system: Enterococcus faecalis vancomycin-susceptible clinical isolate
[7] = system: Salmonella sp - multi-drug resistant clinical isolate; test: MIC microbroth dilution (CLSI); assay type: cell-based
[8] = system: Enterococcus faecium vancomycin-resistant (VanB) clinical isolate
[9] = system: Enterobacter sp - antibiotic-susceptible clinical isolate
[10] = system: Staphylococcus epidermidis methicillin-resistant clinical isolate
[11] = system: Aspergillus niger - G.R. Micro collection
[12] = system: Listeria monocytogenes - antibiotic-susceptible clinical isolate
[13] = system: Streptococcus bovis - macrolide-resistant clinical isolate
[14] = system: Corynebacterium jeikeium - antibiotic-susceptible clinical isolate
[15] = system: Group C Streptococcus - antibiotic-susceptible clinical isolate
[16] = system: Staphylococcus aureus - multi-drug-resistant clinical isolate
[17] = system: Escherichia coli ATCC32518 - β-lactamase positive type strain
[18] = system: Enterococcus faecium vancomycin-susceptible clinical isolate
[19] = system: Pseudomonas aeruginosa - multi-drug resistant clinical isolate
[20] = system: Candida albicans ATCC90028 - reference strain
[21] = system: Staphylococcus haemolyticus - antibiotic susceptible clinical isolate
[22] = system: Staphylococcus aureus - methicillin-resistant clinical isolate
[23] = system: Klebsiella aerogenes - multi-drug resistant clinical isolate
[24] = system: Staphylococcus aureus - teicoplanin-intermediate clinical isolate
[25] = system: MU50 Staphylococcus aureus (MRSA) - VISA type strain
[26] = system: Morganella morganii - multi-drug resistant clinical isolate
[27] = system: Enterococcus faecalis vancomycin-resistant (VanA) clinical isolate
[28] = system: Enterococcus faecium vancomycin-resistant (VanA) clinical isolate
[29] = system: Streptococcus pyogenes - Macrolide (MLS) resistant clinical isolate
[30] = system: Microsporum canis - G.R. Micro collection
[31] = system: Staphylococcus aureus ATCC 25923 - antibiotic-susceptible control strain
[32] = system: Stenotrophomonas maltophilia - antibiotic-susceptible clinical isolate
[33] = system: Enterococcus faecalis - ATCC 29212 antibiotic-susceptible control strain; conditions: ATCC 29212
[34] = system: Salmonella sp - antibiotic-susceptible clinical isolate; test: MIC microbroth dilution (CLSI); assay type: cell-based
[35] = system: Group G Streptococcus - antibiotic-susceptible clinical isolate
[36] = system: EMRSA3 Staphylococcus aureus (MRSA) - SSCmec type 1; conditions: EMRSA3 - SSCmec type 1

`CCCCCCNC(=O)[C@H](CCCNC(=N)N)NC(=O)[C@H](Cc1c(C(C)(C)C)[nH]c2c(C(C)(C)C)cc(C(C)(C)C)cc12)NC(=O)[C@@H](N)CCCNC(=N)N` [Compound 8] was tested. Which MIC [1] did it give?
The MIC was 4 µg/mL (≈ 5.21 µM).

And the MIC [2]?
The MIC was 4 µg/mL (≈ 5.21 µM).

And the MIC [3]?
Its MIC is 8 µg/mL (≈ 10.4 µM).

What about the “S. pyogenes (MIC)” value (S. pyogenes) of the same compound?
The value was 2 µg/mL.

What about the MIC [4] of the same compound?
The MIC was 8 µg/mL (≈ 10.4 µM).

And the MIC [5]?
Its MIC is 8 µg/mL (≈ 10.4 µM).

And the MIC [6]?
Its MIC is 4 µg/mL (≈ 5.21 µM).

And the MIC [7]?
The MIC was 8 µg/mL (≈ 10.4 µM).

What about the MIC [8] of the same compound?
Its MIC is 4 µg/mL (≈ 5.21 µM).

What about the MIC [9] of the same compound?
The MIC was 8 µg/mL (≈ 10.4 µM).

And the MIC [10]?
Its MIC is 2 µg/mL (≈ 2.6 µM).

What about the MIC [11] of the same compound?
Its MIC is 4 µg/mL (≈ 5.21 µM).

What about the MIC [12] of the same compound?
The MIC was 8 µg/mL (≈ 10.4 µM).

And the MIC [13]?
The MIC was 2 µg/mL (≈ 2.6 µM).

And the MIC [14]?
The MIC was 4 µg/mL (≈ 5.21 µM).

And the MIC [15]?
Its MIC is 8 µg/mL (≈ 10.4 µM).

What about the MIC [16] of the same compound?
The MIC was 4 µg/mL (≈ 5.21 µM).

What about the MIC [17] of the same compound?
The MIC was 8 µg/mL (≈ 10.4 µM).

What about the MIC [18] of the same compound?
Its MIC is 4 µg/mL (≈ 5.21 µM).

And the MIC [19]?
The MIC was 4 µg/mL (≈ 5.21 µM).

And the MIC [20]?
The MIC was 4 µg/mL (≈ 5.21 µM).

What about the MIC [21] of the same compound?
The MIC was 4 µg/mL (≈ 5.21 µM).

What about the MIC [22] of the same compound?
Its MIC is 4 µg/mL (≈ 5.21 µM).

And the MIC [23]?
Its MIC is 8 µg/mL (≈ 10.4 µM).

And the MIC [24]?
Its MIC is 4 µg/mL (≈ 5.21 µM).

What about the MIC [25] of the same compound?
Its MIC is 4 µg/mL (≈ 5.21 µM).

What about the MIC [26] of the same compound?
The MIC was 8 µg/mL (≈ 10.4 µM).

What about the MIC [27] of the same compound?
Its MIC is 4 µg/mL (≈ 5.21 µM).

And the MIC [28]?
The MIC was 4 µg/mL (≈ 5.21 µM).

And the MIC [29]?
The MIC was 8 µg/mL (≈ 10.4 µM).

And the MIC [30]?
Its MIC is 4 µg/mL (≈ 5.21 µM).

And the MIC [31]?
Its MIC is 4 µg/mL (≈ 5.21 µM).

What about the MIC [32] of the same compound?
Its MIC is 4 µg/mL (≈ 5.21 µM).

What about the MIC [33] of the same compound?
Its MIC is 4 µg/mL (≈ 5.21 µM).

And the MIC [34]?
Its MIC is 8 µg/mL (≈ 10.4 µM).

And the MIC [35]?
The MIC was 8 µg/mL (≈ 10.4 µM).

What about the MIC [36] of the same compound?
The MIC was 4 µg/mL (≈ 5.21 µM).

And the “E. coli (MIC)” value (E. coli)?
Its value is 5 µg/mL.
